Measured values: patent US9550792B2, “Polycyclic substituted pyrazole kinase activity inhibitors and use thereof” (priority 2013, dated 2017)
“And” between values parts separate entries of the source, which are not always exact repeats. Equal entries are not always repeated. Where two headings read alike, the source gives them in different places.

Legend:
[1] = test system: resistant breast cancer cell line MCF-7; assay: Anti-tumor activity in vitro, MTT method; conditions: Homo sapiens, MCF7, 48 h, read-out: Resistant MCF7 (IC50/μM)
Protocol: (§1) MTT method: the dehydrogenase associated with NADP in the mitochondria of living cell is capable of reducing exogenous MTT into insoluble bluish violet crystal (Formazan), which is precipitated in the cell. […] DMSO or Triple liquid (10% SDS-5% isobutanol-0.01 mol/L HCl) is used to dissolve the crystal in the cell. The OD determined at 570 nm by a microplate reader can reflect the amount of the living cell indirectly.
(§2) The crystal is dissolved with DMSO and the detection is performed on a microplate reader.

[2] = test system: umbilical cord vein endothelium cell line HUVEC; assay: Anti-tumor activity in vitro, MTT method; conditions: Homo sapiens, 48 h, read-out: HUVEC (IC50/μM)
Protocol: as §1, §2

[3] = test system: stomach cancer cell line MGC803; assay: Anti-tumor activity in vitro, MTT method; conditions: Homo sapiens, MGC-803, 48 h, read-out: MGC803 (IC50/μM)
Protocol: as §1, §2

[4] = Pharmacokinetics after single oral dose in rats; type: in vivo, Wistar rat
Protocol: 300 μL blood collected from the rat was mixed with 30 μL methanol and 2 mL ethyl acetate. The samples were vortexed for 3 min and centrifuged at 4000 rpm for 15 min. The supernatant was introduced into another centrifugal tube. The lower layer was repeatedly extracted and then the supernatants were combined and dried with nitrogen gas. After redissolution with 150 μL methanol, they were filtered by 0.22 μm membrane and then subjected to analysis with a injection volume of 20 μL.
An amount of compound was taken accurately to prepare CMC-Na aqueous solution containing 3 mg/mL of drug. 12 healthy male Wister rats were randomly assigned to two groups, each group including 6 rats. The first group was administrated orally compound 1. The second group was administrated orally compound 2. The doses were both 30 mg/kg (corresponding to 2 mL for each rat). The rats were fasting for 12 h before administration and free access to water. 0.6 mL blood samples were collected at 0.5, 1, 1.5, 2, 2.5, 3, 5, 8, 12 and 24 h after drug administration from the venous sinuses and added into EP tubes which were rinsed with heparin sodium previously. The samples were centrifuged at 4,000 r/min for 15 min and the upper plasma were obtained. 300 μL plasma was subjected to analysis and the chromatogram and peak area were recorded. The plasma concentrations of compounds 1 and 2 were calculated to give average concentration-time curve.
DAS 2.0 program was used to analyze plasma concentration vs. time data after s single oral dose (Table 6, 7). Fitting and the AIC methods were used to determine the model. The analysis was based on the principle that the larger fitting and the smaller AIC, the better model. The oral administration was consistent with the two-compartment model. The statistical distance parameter is used to compare the 2 compounds for the pharmacokinetic parameters.

leukemia cell line NB4 = assay: Anti-tumor activity in vitro, MTT method; conditions: 48 h, read-out: NB4 (IC50/μM)
Protocol: as §1, §2

S180 grafting tumor = assay: Inhibition to S180 grafting tumor in animal; type: in vivo, ICR mouse; conditions: for Body weight After administration / Tumor inhibition / Tumor weight: 7 administrations; for Tumor inhibition / Tumor weight: d8
Protocol: ICR mouse was inoculated with solid tumor according to tumor grafting process (tumor piece was weighed under sterile condition, homogenized with glass tissue homogenizer, placed within a sterile container, to which was added physiological saline to prepare 1:3 cell suspension. The container was placed on ice and aspirated and the cells were mixed homogeneously before each aspiration. Each mouse was inoculated subcutaneously 0.2 mL at right fore axilla). […] The mice were administered intravenously, once a day and 7 administrations in total. The administration volume was 0.4 ml/20 g. The mice bearing tumor were sacrificed 8 days after inoculation (d8). The tumor tissue was separated and weighed. The data was analyzed with statistics method (t-test).
Dose setting: 5 groups in total.

[5] = Measurement of water solubility; type: physicochemical; conditions: thermodynamic from solid, distilled water, 25° C.
Protocol: An excess quantity of sample was added into a 50 mL triangular flask, to which 10 mL distilled water was added, and then the flask was vibrated in a Constant Temperature Vibrator at 25° C. for 72 h. The solution was centrifuged at 10000 r/min for 15 min and then the supernatant was filtrated with […] microfiltration membrane to remove undissolved drug. 2 mL filtrate was metered with methanol to 10 ml. The content of drug was determined with 20 μL sample injection.

lung cancer cell H1299 = assay: Anti-tumor activity in vitro, MTT method; type: cell-based; conditions: Homo sapiens, NCI-H1299, 48 h, read-out: H1299 (IC50/μM)
leukemia cell line K562 = assay: Anti-tumor activity in vitro, MTT method; conditions: Homo sapiens, K562, 48 h, read-out: K562 (IC50/μM)
Protocol: as §1, §2

[6] = test system: liver cancer cell line HEPG2; assay: Anti-tumor activity in vitro, MTT method; conditions: Homo sapiens, HepG2, 48 h, read-out: HEPG2 (IC50/μM)
Protocol: as §1, §2

[7] = test system: colon cancer cell line HCT116; assay: Anti-tumor activity in vitro, MTT method; type: cell-based; conditions: Homo sapiens, HCT-116, 48 h
[8] = test system: breast cancer cell line MCF-7; assay: Anti-tumor activity in vitro, MTT method; conditions: Homo sapiens, MCF7, 48 h, read-out: MCF7 (IC50/μM)
Protocol: as §1, §2

[9] = test system: stomach cancer cell line BSG823; assay: Anti-tumor activity in vitro, MTT method; conditions: 48 h, read-out: BSG823 (IC50/μM)
Protocol: as §1, §2

[10] = male, Wistar, plasma, rat, oral 30 mg/kg
[11] = 7.5 mg/kg intravenously once a day
[12] = 15 mg/kg intravenously once a day
[13] = 30 mg/kg intravenously once a day

CN1CCN(Cc2ccc(NC(=O)c3n[nH]cc3Nc3ncnc4sccc34)cc2)CC1 [Compound I-1, 4-(4-thieno[2,3-d]pyrimidinylamino)-N-(4-((4-methyl-1-piperazinyl)methyl)phenyl)-1H-3-pyrazole carboxamide]
IC50 [1]: 3.73 µM
IC50 [2]: 2.54 µM
IC50 [3]: 2.27 µM
Cmax [4, 10]: 241 ± 103 ng/mL
Tmax [4, 10]: 5.5 ± 2.29 h
half-life [4, 10]: 45.8 ± 29.1 h
AUC(0-t) ([4]; male, Wistar, plasma, rat, oral 30 mg/kg, read-out: AUC 0-24): 3350 ± 468 ng·h/mL
MRT last ([4]; male, Wistar, plasma, rat, oral 30 mg/kg, read-out: MRT 0-24): 11.6 ± 1.09 h
concentration at 0.5 h ([4]; male, Wistar, rat, plasma, po, 30 mg/kg, mean of rats, oral 30 mg/kg, time 0.5 h, read-out: Plasma concentration, mean): 72.7 ng/mL
concentration at 1 h ([4]; male, Wistar, rat, plasma, po, 30 mg/kg, mean of rats, oral 30 mg/kg, time 1 h, read-out: Plasma concentration, mean): 82.8 ng/mL
concentration at 2 h ([4]; male, Wistar, rat, plasma, po, 30 mg/kg, mean of rats, oral 30 mg/kg, time 2 h, read-out: Plasma concentration, mean): 103 ng/mL
concentration at 2.5 h ([4]; male, Wistar, rat, plasma, po, 30 mg/kg, mean of rats, oral 30 mg/kg, time 2.5 h, read-out: Plasma concentration, mean): 113 ng/mL
concentration at 3 h ([4]; male, Wistar, rat, plasma, po, 30 mg/kg, mean of rats, oral 30 mg/kg, time 3 h): 154 ng/mL
concentration at 5 h ([4]; male, Wistar, rat, plasma, po, 30 mg/kg, mean of rats, oral 30 mg/kg, time 5 h): 164 ng/mL
concentration at 8 h ([4]; male, Wistar, rat, plasma, po, 30 mg/kg, mean of rats, oral 30 mg/kg, time 8 h, read-out: Plasma concentration, mean): 195 ng/mL
concentration at 12 h ([4]; male, Wistar, rat, plasma, po, 30 mg/kg, mean of rats, oral 30 mg/kg, time 12 h, read-out: Plasma concentration, mean): 134 ng/mL
concentration at 24 h ([4]; male, Wistar, rat, plasma, po, 30 mg/kg, mean of rats, oral 30 mg/kg, time 24 h): 123 ng/mL
concentration at 0.5 h ([4]; male, Wistar, rat, plasma, po, 30 mg/kg, rat No. 1-6, oral 30 mg/kg, time 0.5 h, read-out: Plasma concentration, individual rats): 68.8 ng/mL
concentration at 1 h ([4]; male, Wistar, rat, plasma, po, 30 mg/kg, rat No. 1-6, oral 30 mg/kg, time 1 h, read-out: Plasma concentration, individual rats): 105 ng/mL
concentration at 2 h ([4]; male, Wistar, rat, plasma, po, 30 mg/kg, rat No. 1-6, oral 30 mg/kg, time 2 h, read-out: Plasma concentration, individual rats): 114 ng/mL
concentration at 2.5 h ([4]; male, Wistar, rat, plasma, po, 30 mg/kg, rat No. 1-6, oral 30 mg/kg, time 2.5 h, read-out: Plasma concentration, individual rats): 100 ng/mL
concentration at 8 h ([4]; male, Wistar, rat, plasma, po, 30 mg/kg, rat No. 1-6, oral 30 mg/kg, time 8 h, read-out: Plasma concentration, individual rats): 157 ng/mL
concentration at 12 h ([4]; male, Wistar, rat, plasma, po, 30 mg/kg, rat No. 1-6, oral 30 mg/kg, time 12 h, read-out: Plasma concentration, individual rats): 108 ng/mL
Plasma concentration, individual rats ([4]; rat No. 1-6, oral 30 mg/kg, time 0.5 h, 30 mg/kg): 68.95 ng*ml/1 and 65.08 ng*ml/1 and 76.41 ng*ml/1 and 80.51 ng*ml/1 and 76.52 ng*ml/1
Plasma concentration, individual rats ([4]; rat No. 1-6, oral 30 mg/kg, time 1 h, 30 mg/kg): 65.58 ng*ml/1 and 73.81 ng*ml/1 and 81.17 ng*ml/1 and 80.91 ng*ml/1 and 90.92 ng*ml/1
Plasma concentration, individual rats ([4]; rat No. 1-6, oral 30 mg/kg, time 2 h, 30 mg/kg): 97.96 ng*ml/1 and 100.94 ng*ml/1 and 86.23 ng*ml/1 and 86.97 ng*ml/1 and 132.81 ng*ml/1
Plasma concentration, individual rats ([4]; rat No. 1-6, oral 30 mg/kg, time 2.5 h, 30 mg/kg): 96.8 ng*ml/1 and 113.35 ng*ml/1 and 104.16 ng*ml/1 and 106.91 ng*ml/1 and 158.41 ng*ml/1
Plasma concentration, individual rats ([4]; rat No. 1-6, oral 30 mg/kg, time 3 h, 30 mg/kg): 149.67 ng*ml/1 and 112.43 ng*ml/1 and 125.86 ng*ml/1 and 78.87 ng*ml/1 and 266.46 ng*ml/1 and 191.06 ng*ml/1
Plasma concentration, individual rats ([4]; rat No. 1-6, oral 30 mg/kg, time 5 h, 30 mg/kg): 174.04 ng*ml/1 and 159.33 ng*ml/1 and 115.59 ng*ml/1 and 172.92 ng*ml/1 and 127.6 ng*ml/1 and 232.81 ng*ml/1
Plasma concentration, individual rats ([4]; rat No. 1-6, oral 30 mg/kg, time 8 h, 30 mg/kg): 150.59 ng*ml/1 and 233.26 ng*ml/1 and 151.83 ng*ml/1 and 271.51 ng*ml/1 and 205.77 ng*ml/1
Plasma concentration, individual rats ([4]; rat No. 1-6, oral 30 mg/kg, time 12 h, 30 mg/kg): 135.84 ng*ml/1 and 153.29 ng*ml/1 and 135.94 ng*ml/1 and 110.59 ng*ml/1 and 162.93 ng*ml/1
Plasma concentration, individual rats ([4]; rat No. 1-6, oral 30 mg/kg, time 24 h, 30 mg/kg): 126.6 ng*ml/1 and 105.83 ng*ml/1 and 167.23 ng*ml/1 and 133.16 ng*ml/1 and 79.81 ng*ml/1 and 123.91 ng*ml/1
pharmacokinetic parameters (in words) ([4]; rat, oral 30 mg/kg): acceptable
IC50 (leukemia cell line NB4): 0.74 µM
Body weight After administration (S180 grafting tumor; [11]): 24.00 ± 0.75 g
Tumor inhibition (S180 grafting tumor; [11]): 36.94%
Tumor weight (S180 grafting tumor; [11]): 0.74 ± 0.19 g
effect on S180 tumor growth compared to the model control group (in words) (S180 grafting tumor; 7.5 mg/kg, P<0.05): significant inhibitory effect
Body weight After administration (S180 grafting tumor; [12]): 20.00 ± 1.94 g
Tumor inhibition (S180 grafting tumor; [12]): 45.2%
Tumor weight (S180 grafting tumor; [12]): 0.63 ± 0.11 g
effect on S180 tumor growth compared to the model control group (in words) (S180 grafting tumor; 30 mg/kg and 15 mg/kg, P<0.01): very significant inhibitory effect
effect on the body weight of experimental animals (in words) (S180 grafting tumor; 30 mg/kg and 15 mg/kg, P<0.05): significant inhibitory effect on the body weight
Body weight After administration (S180 grafting tumor; [13]): 20.43 ± 3.20 g
Tumor inhibition (S180 grafting tumor; [13]): 55.5%
Tumor weight (S180 grafting tumor; [13]): 0.52 ± 0.25 g
solubility at 72 h [5]: < 0.1 µg/mL
IC50 (lung cancer cell H1299): 3.3 µM
IC50 (leukemia cell line K562): 3.2 µM
IC50 [6]: 25.2 µM
IC50 ([7]; read-out: HCT116 (IC50/μM)): 0.25 µM
IC50 ([7]; read-out: HCT-116 (IC50/μM)): 0.13 µM
IC50 [8]: 0.42 µM
IC50 [9]: 20.7 µM
